{
  "source": "patent US9795652B2",
  "about": "“Use of endogenous antioxidant proteins in the treatment of stroke” (University of South Florida, priority 2010, dated 2017)",
  "tested_on": "primary rat oligodendrocyte cultures",
  "assay": "LIF protection of oligodendrocytes from oxygen glucose deprivation (extracellular LDH)",
  "format": "cell-based",
  "settings": "24 hours OGD",
  "experimental": "OL cell death in culture was determined using the LDH assay (Takara Bio, Inc., Madison, Wis.), since cell death is associated with LDH release through the plasma membrane. LDH is present in a large number of tissues, like the heart, liver, kidney, skeletal muscle, brain, blood cells, and lungs. Tissue breakdown releases LDH, thereby elevating circulating LDH and indicating tissue damage. Briefly, 100 μl of tissue culture media from each experimental group was added to a 96-well plate and 100 μl of LDH reagent was added to each well. Plates were incubated for 30 min at 25° C. and absorbances were read on a microplate reader at a 548 nm wavelength. The media from HUCB cell only cultures served as a control for HUCB cell death. The absorbance of HUCB cell only media, as well as the absorbance of media only, was subtracted from the total absorbance of the OL wells to eliminate background LDH activity.\nAn oxygen deprivation model was used to test the effect of LIF on primary rat oligodendrocyte cultures. Cells were grown in neurobasal medium containing B27 and […] glutamine prior to OGD. To simulate ischemic conditions, the neurobasal medium was replaced with DMEM containing no glucose (OGD). The cells were then exposed to 1% O2, 5% CO2 and 94% N2 for 24 hours. No LIF (OGD) or LIF was added to the cells, at the concentrations indicated. […]",
  "data": [
    {"substance": "leukemia inhibitory factor [LIF]", "values": [
      {"measurement": "extracellular LDH levels compared to untreated (OGD)", "setting": "LIF 100 pg", "result": "about 47.6%"},
      {"measurement": "extracellular LDH compared to untreated cells", "setting": "LIF 50 ng", "result": "approximately 2.7%"}
    ]}
  ]
}
